# Reference: patent publication US20240059673A1, “SUBSTITUTED INDOLE COMPOUNDS” (Gilead Sciences, Inc., priority 2020, published 2024)
# Experiments:
# [1] = target: T1, TLR8 (Homo sapiens, UniProt Q9NR97); assay: TLR8 human PBMC cell-based assay; settings: human PBMCs; TLR8 agonist Compound A 800 nM; 6 hours; cytokines (TNFa and IL12p40) in supernatant; Table 2; read-out: TLR-8 EC50
# T1 construct: lymphocytes, monocytes and dendritic cells that express TLR7, TLR8 and TLR9; endogenous in cells; host or cells: cryopreserved human PBMCs from healthy donors
# T1 sequence (Q9NR97 27-1041): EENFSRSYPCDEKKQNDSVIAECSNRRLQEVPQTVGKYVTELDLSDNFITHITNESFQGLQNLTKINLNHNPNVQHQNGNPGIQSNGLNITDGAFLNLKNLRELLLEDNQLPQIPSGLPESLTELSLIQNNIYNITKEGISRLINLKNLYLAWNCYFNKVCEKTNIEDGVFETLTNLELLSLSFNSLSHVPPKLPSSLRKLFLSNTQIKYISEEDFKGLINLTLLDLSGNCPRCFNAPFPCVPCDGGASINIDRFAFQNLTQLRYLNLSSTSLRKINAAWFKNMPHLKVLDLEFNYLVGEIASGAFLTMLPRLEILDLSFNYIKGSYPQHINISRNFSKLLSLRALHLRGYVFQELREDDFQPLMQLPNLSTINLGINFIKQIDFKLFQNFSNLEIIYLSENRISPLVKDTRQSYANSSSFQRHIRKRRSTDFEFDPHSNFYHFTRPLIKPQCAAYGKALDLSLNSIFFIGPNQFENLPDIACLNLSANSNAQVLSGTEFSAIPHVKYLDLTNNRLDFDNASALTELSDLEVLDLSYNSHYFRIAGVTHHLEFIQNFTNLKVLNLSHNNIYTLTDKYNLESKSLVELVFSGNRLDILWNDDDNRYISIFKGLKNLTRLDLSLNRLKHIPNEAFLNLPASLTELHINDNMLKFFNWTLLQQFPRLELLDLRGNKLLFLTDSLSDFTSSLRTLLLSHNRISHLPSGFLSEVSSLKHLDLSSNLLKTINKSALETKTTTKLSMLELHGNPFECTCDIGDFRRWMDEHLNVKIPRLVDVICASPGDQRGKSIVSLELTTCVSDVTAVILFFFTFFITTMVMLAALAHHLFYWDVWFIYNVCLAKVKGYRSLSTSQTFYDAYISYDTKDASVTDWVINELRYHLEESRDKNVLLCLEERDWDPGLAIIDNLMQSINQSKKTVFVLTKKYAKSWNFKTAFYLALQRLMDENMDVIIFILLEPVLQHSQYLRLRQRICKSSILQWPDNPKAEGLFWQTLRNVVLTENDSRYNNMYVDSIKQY
# Protocol: TLR8 Human Peripheral Blood Mononuclear Cell (PBMC) Cell-Based Assay
# Cryopreserved human PBMCs from healthy donors were thawed and resuspended in RPMI-1640 media with L-glutamine (Corning) supplemented with 10% Fetal Bovine Serum (Hyclone) and 1× Penicillin-Streptomycin (Corning). After counting, the cell density was adjusted to 2 million cells/ml and incubated for 1 hour at 37° C., 5% CO2 for recovery. Following the recovery, the cells were plated by adding 50p per well (100,000 cells) to 384-well cell culture plates (Greiner) containing 250 nl of test antagonists in 100% DMSO per well, in a 10 points dose response in quadruplicates. PBMCs were incubated in the presence of antagonists for one hour at 37° C., 5% CO2 before being stimulated with TLR8 agonist. Compound A (Gilead Sciences, U.S. Pat. No. 10,285,990) was used as the TLR8 agonist at a final concentration of 800 nM. PBMCs were incubated in the presence of antagonist and the TLR8 agonist for an additional 6 hours at 37° C., 5% CO2. At the end of the incubation, the cell culture plates were centrifuged at 500 g for 5 min, and the cell culture supernatant was collected. The level of cytokines (TNFa and IL12p40) in the supernatant was measured by electrochemiluminescence immunoassays (Mesoscale Discovery) following manufacturer's recommended protocols. The level of cytokine measured was plotted against the antagonist concentration and fitted to a sigmoidal function to determine the EC50, which are shown below in Table 2.
# [2] = target: cloned hERG potassium channel (Homo sapiens, UniProt Q12809); assay: hERG FASTPatch assay (QPatch patch clamp); assay type: cell-based; settings: hERG stably expressed in cells; 1, 3, 10 and 30 uM; room temperature; Table 3
# Protocol: Human Ether-à-go-go-Related Gene (hERG) Assay
# The FASTPatch® Assay (Charles River) was used to examine the in vitro effects of the compounds provided herein on the cloned hERG potassium channel encoded by the KCNHI2 gene and stably expressed in ITEK293T cells. Vehicle, test and control article formulations were prepared by diluting DMSO stock solutions in TIB-PS (HEPES-buffered physiological saline solution) and were delivered to cells via the QPatch robot pipetting system to a final concentration of 0.3% DMSO. Test compound final concentrations of 1, 3, 10 and 30 uM were applied to cells (n≥3, where n=the number of cells/concentration) in ascending order in at least three minute intervals separated by solution exchange. The positive control, 50 nM cisparide, was applied in the same manner. Cell membrane currents were recorded at room temperature with up to 48 parallel patch clamp amplifiers in the QPatch HT® or QPatch HTX® system, and only cells with validated whole-cell recordings (seal resistance ≥200 MQ and leak current ≤25% channel current) were used. Onset and block of hERG current was measured using a stimulus voltage pattern consisting of a 500 ms prepulse to −40 mV, a 2-second activating pulse to +40 mV, followed by a 2-second test pulse to −40 mV. The pulse pattern was repeated continuously at 10-second intervals from a holding potential of −80 mV. % Block={1−1/[1+([Test]/IC50)^N]}*100% Where [Test] is the concentration of test article, IC50 is the concentration of the test article producing half-maximal inhibition, N is the Hill coefficient and % Block is the percentage of current inhibited at each concentration of the test article. Nonlinear least squares fits will be solved with the Solver add-in for Excel 2000 or later (Microsoft, Redmon, WA). TurboSol analysis for test compound solubility was performed for each concentration tested using a Nephelostar reader measuring light scatter from a 635 nm laser source. Based on validation experiments, light scatter above four times the background level was considered an indication of the presence of particles in suspension.
# The hERG IC50 values are provided below in Table 3.
# cloned hERG potassium channel, sequence (Q12809 whole entry): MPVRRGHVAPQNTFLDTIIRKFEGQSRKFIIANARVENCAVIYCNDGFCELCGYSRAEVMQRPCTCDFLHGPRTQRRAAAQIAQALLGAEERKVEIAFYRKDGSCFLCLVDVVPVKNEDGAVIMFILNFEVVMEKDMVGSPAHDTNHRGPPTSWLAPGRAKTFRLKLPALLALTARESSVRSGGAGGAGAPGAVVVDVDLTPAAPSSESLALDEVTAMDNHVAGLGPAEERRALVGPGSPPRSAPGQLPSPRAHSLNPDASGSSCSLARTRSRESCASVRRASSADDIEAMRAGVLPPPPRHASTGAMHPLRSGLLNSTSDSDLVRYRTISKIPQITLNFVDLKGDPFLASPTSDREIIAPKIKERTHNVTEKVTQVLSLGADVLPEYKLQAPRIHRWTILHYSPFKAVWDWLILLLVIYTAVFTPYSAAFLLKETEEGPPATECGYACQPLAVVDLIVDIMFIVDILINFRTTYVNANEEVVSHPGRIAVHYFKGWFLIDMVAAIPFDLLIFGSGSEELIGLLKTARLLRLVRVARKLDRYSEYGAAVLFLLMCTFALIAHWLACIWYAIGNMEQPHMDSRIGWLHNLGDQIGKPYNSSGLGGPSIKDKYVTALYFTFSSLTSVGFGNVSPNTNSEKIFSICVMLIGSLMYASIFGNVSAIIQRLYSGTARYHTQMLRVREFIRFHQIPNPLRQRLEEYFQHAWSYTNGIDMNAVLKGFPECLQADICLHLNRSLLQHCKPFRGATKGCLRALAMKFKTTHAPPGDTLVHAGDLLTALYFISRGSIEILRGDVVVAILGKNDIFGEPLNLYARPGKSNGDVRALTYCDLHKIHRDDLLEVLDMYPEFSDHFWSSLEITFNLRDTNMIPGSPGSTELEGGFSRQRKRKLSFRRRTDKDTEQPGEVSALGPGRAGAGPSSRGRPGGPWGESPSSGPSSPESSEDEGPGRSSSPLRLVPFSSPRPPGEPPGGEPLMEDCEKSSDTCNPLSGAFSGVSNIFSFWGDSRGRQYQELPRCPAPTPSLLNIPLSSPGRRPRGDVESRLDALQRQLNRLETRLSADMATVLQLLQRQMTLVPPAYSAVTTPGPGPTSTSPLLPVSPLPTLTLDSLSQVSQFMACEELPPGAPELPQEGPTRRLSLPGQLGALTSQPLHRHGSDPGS
EC50 [1] [nM],Compound,IC50 [2] [nM]
318,"Cc1cc(-c2ccc3c(C)c(-c4cnc(N5CCNCC5)nc4)[nH]c3c2)cc(C)n1 [Example 1, 6-(2,6-dimethylpyridin-4-yl)-3-methyl-2-(2-(piperazin-1-yl)pyrimidin-5-yl)-1H-indole]",–
21.5,Cc1c(-c2ccc(N3CCNCC3)nc2)[nH]c2cc(-c3ccc(C#N)c4ncccc34)ccc12 [Example 7],–
18.2,Cc1c(-c2ccc(N3CCNCC3)nc2)[nH]c2cc(-c3cc(C)c4ncnn4c3)ccc12 [Example 4],15500
307,"Cc1cc(-c2ccc3c(C)c(-c4ccc(N5CCNCC5)nc4)[nH]c3c2)cc(C)n1 [Example 2, 6-(2,6-dimethylpyridin-4-yl)-3-methyl-2-(6-(piperazin-1-yl)pyridin-3-yl)-1H-indole]",7000
34.7,CCc1c(-c2ccc(N3CCNCC3)nc2)[nH]c2cc(-c3cc(C)c4ncnn4c3)ccc12 [Example 23],–
–,"Cc1cc(-c2[nH]c3ccc(-c4ccc(N5CCNCC5)nc4)cc3c2C(C)C)cn2ncnc12 [Example B, reference compound]",5100
–,"Cc1cc(-c2[nH]c3ccc(-c4ccc(N5CCNCC5)nc4)cc3c2C(C)C)cc(C)n1 [Example A, reference compound]",4500
